Experiments:
CtBP1/BARS [1] = target: T1, CtBP1/BARS (Rattus norvegicus, UniProt Q9Z2F5); assay: ITC; also tryptophan fluorescence quenching (Kd […]); format: binding; parameters: His-CtBP1/BARS wt, full-length (CtBP1-S/BARS)
CtBP1/BARS [2] = target: T1, CtBP1/BARS; assay: size-exclusion chromatography (dimer to tetramer shift, […] NAD+); pull-down of self-association; format: biochemical

Kd (CtBP1/BARS [1]) [nM] | Compound | size-exclusion chromatography (dimer to tetramer shift, 100 μM NAD+); pull-down (CtBP1/BARS [2])
660 ± 200 | O=C(Nc1ccc([N+](=O)[O-])cc1)Nc1ccc(S(=O)(=O)Nc2ccc(Cl)c(Cl)c2)cc1 [Comp.11, N-(3,4-dichlorophenyl)-4-{[(4-nitrophenyl)carbamoyl]amino}benzenesulfonamide] | –
– | NC(=O)c1ccc[n+]([C@@H]2O[C@H](COP(=O)([O-])OP(=O)(O)OC[C@H]3O[C@@H](n4cnc5c(N)ncnc54)[C@H](O)[C@@H]3O)[C@@H](O)[C@H]2O)c1 [NAD+] | The addition of NAD^+ shifts the elution patterns so that the majority of CtBP1/BARS elutes as a tetramer

— PMC11071220, “Identification and characterization of a new potent inhibitor targeting CtBP1/BARS in melanoma cells” (Journal of Experimental & Clinical Cancer Research : CR, 2024)
